What was measured:
[1] = molecular target: T1, MMP-2 (Homo sapiens, UniProt P08253); experiment: K(obs) of individual phage substrates (set of 1369); type: biochemical; settings: MMP2
T1 sequence (P08253 110-660): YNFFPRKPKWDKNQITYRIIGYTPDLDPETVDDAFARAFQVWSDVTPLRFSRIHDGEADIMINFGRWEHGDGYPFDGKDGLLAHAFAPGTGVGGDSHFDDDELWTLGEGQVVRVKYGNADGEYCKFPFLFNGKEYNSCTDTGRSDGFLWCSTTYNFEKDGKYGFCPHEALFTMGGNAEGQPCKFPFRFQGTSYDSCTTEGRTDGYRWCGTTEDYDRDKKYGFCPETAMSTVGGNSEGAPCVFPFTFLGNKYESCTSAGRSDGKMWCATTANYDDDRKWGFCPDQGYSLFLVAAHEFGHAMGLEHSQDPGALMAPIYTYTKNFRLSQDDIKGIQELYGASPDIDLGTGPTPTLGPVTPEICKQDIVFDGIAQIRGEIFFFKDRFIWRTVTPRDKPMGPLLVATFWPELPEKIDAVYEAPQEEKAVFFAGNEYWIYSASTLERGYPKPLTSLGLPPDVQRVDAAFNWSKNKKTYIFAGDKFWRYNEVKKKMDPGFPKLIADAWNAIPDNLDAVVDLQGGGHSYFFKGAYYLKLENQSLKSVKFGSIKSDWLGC

[2] = molecular target: MMP-9 (Homo sapiens, UniProt P14780); experiment: as above; type: biochemical; settings: MMP9, individual phage substrates, set of 1369 peptides
[3] = individual phage substrates, set of 1369 peptides, cleavage position marked by '-' in the sequence
[4] = '-' marks the cleavage position (P1-P1')
[5] = individual phage substrate from the set of 1369 peptides, cleavage position marked by the dash in the sequence
[6] = dash in sequence marks cleavage position

MMP-9, sequence (P14780 94-707): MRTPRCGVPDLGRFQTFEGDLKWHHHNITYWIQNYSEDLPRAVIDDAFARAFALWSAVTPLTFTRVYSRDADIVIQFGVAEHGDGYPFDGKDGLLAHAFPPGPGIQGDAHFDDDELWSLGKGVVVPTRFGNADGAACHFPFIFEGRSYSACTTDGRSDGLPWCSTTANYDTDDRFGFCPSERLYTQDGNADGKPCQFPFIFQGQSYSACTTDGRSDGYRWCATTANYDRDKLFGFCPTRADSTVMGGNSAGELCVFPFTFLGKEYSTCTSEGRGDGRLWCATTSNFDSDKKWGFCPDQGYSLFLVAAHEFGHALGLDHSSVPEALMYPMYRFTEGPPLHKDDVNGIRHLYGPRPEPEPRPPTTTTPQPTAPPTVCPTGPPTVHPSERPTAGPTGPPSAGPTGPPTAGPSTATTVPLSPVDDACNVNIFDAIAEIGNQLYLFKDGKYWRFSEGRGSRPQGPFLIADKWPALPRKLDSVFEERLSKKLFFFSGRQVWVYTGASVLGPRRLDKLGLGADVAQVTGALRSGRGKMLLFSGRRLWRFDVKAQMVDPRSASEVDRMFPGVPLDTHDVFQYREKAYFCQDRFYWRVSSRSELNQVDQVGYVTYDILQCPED

Substance | Kobs [1, 3] [M⁻¹ s⁻¹] | Kobs [2, 4] [M⁻¹ s⁻¹] | Kobs [1, 5] [M⁻¹ s⁻¹] | Kobs [2, 6] [M⁻¹ s⁻¹]
SRPRM-LTASG |  |  | 7815.03 | 8321.48
SGAGR-LRATA |  |  | 142.481 | 517.582
GLPQA-LLTAS | 12792.1 | 12792.1 |  | 
GWGDR-LTTAS |  |  | 1154.21 | 292.668
SGVRM-LRRTA | 799.117 | 2157.02 |  | 
RDLWK-LTASG | 0 | 56.119 |  | 
CLLAS-LTASG |  |  | 6396.07 | 0
SGPHL-LIRTA | 0 | 386.839 |  | 
SGPSS-LLGTA | 12792.1 | 12792.1 |  | 
SGALH-LRETA | 201.585 | 201.585 |  | 
ELYAS-LTASG | 12792.1 | 0 |  | 
SGAVA-LRLTA | 1981.53 | 3438.54 |  | 
GCAQE-LTTAS |  |  | 113.394 | 27.918
FAAYS-LTASG | 5667.28 | 12792.1 |  | 
TRPQH-LTASG | 10866.7 | 7815.03 |  | 
VDILH-LTASG | 3438.54 | 551.253 |  | 
RGVWK-LTASG |  |  | 0 | 1071.29
GRPHP-LSTAS | 12792.1 | 8941.32 |  | 
SGPAA-LQSTA |  |  | 8321.48 | 6688.74
HLFQW-LTASG |  |  | 7015.91 | 0
EVTMW-LTASG | 551.253 | 951.362 |  | 

The next lines start with the values.

Kobs [1, 3] [M⁻¹ s⁻¹] | Kobs [2, 4] [M⁻¹ s⁻¹] | Kobs [1, 5] [M⁻¹ s⁻¹] | Kobs [2, 6] [M⁻¹ s⁻¹] | Substance
2157.02 | 5090.5 |  |  | SGAYS-LRVTA
 |  | 912.511 | 912.511 | ARAQH-ITASG
 |  | 5269.78 | 9740.44 | SKIRF-LTASG
 |  | 231.616 | 261.974 | GDVRH-IFTAS
0 | 0 |  |  | SGIQT-MKVTA
27.918 | 0 |  |  | GSAHL-LLTAS
8941.32 | 726.013 |  |  | MAYQS-LTASG
2218.08 | 4470.66 |  |  | CCAMG-LTASG
 |  | 4613.14 | 0 | GGSGA-LTSRF
 |  | 0 | 84.609 | TTSLR-LTASG
142.481 | 231.616 |  |  | GVGHN-LRTAS
12792.1 | 1112.44 |  |  | GGSGF-LMSWM
12792.1 | 1283.43 |  |  | KRAAS-LTASG
12792.1 | 484.315 |  |  | QHLAA-LTASG
0 | 0 |  |  | QRMDL-LTASG
0 | 990.764 |  |  | GIAMN-ILTAS
7815.03 | 6396.07 |  |  | GSPLS-WRTAS
0 | 323.705 |  |  | GQVFR-LITAS
5667.28 | 5889.62 |  |  | SGPMG-MRNTA
551.253 | 1327.88 |  |  | GRVWH-LQTAS
1561.44 | 7815.03 |  |  | SGPLS-QSTTA
12792.1 | 12792.1 |  |  | GQPFA-LSTAS
5889.62 | 3964.21 |  |  | SGPSN-MLRTA
654.784 | 1925.41 |  |  | SGVWG-IRYTA
 |  | 1071.29 | 1513.13 | SGPSR-ILMTA
